Data set [1] is classed as physicochemical. Particulars: for Changes of HPLC purity over 10 days: 10 days vs 0 day; for Stability of crystal form and HPLC data: 10 days. As for the experimental part:
The X-ray powder diffraction instrument and test conditions involved in the present disclosure were as follows: X-ray diffraction instrument model MiniFlex600Cu target; operation method: scanning speed 20°/min, scanning step width 0.02°. The liquid phase test conditions involved in the present disclosure were as follows: chromatographic column: Agilent Zorbax SB-18, 150×4.6 mm, 5 μm; mobile phase A: 0.1% phosphoric acid aqueous solution; mobile phase B: acetonitrile; detection wavelength: 205 nm; flow rate: 1.0 ml/min; injection volume: 5 μl; column temperature: […]. The samples of crystal form A obtained in Example 1, the crystal form B obtained in Example 5 of the present disclosure, and the crystal forms 1, 2, 4, and 5 obtained in Preparation Example were placed at 60° C. for 5 days and 10 days, respectively, and subjected to HPLC and XRD detection, respectively.

Data set [2] in a line: Microscope photographs: crystal habit and particle fluidity. Conditions: judged from microscope photographs. The format is physicochemical. The text has this: Microscope photographs of the samples of the crystal form A obtained in Example 1, the crystal form B obtained in Example 5 of the present disclosure, and the crystal forms 1, 2, 4, and 5 obtained in Preparation Example are shown in FIGS. 7-12, respectively.

For data set [3] the following is noted: human, in vivo; cited from earlier work.
The mark [4] stands for this setting: 0 Day, before placing at 60° C.

Where two headings read alike, the source gives them in different places.

Data on 7 molecules can be found in patent US20250340540A1, “Crystal Forms Of HS378 And Preparation Method Therefor” (priority 2022, published 2025).

For `CC(C)(C)[C@H](NC(=O)C(F)(F)F)C(=O)N1C[C@H]2[C@@H]([C@H]1C(=O)N[C@H](C#N)C[C@@H]1CCNC1=O)C2(C)C` [Crystal form 2], the “HPLC purity (%)” value came to 93.83% in data set [1] (setting [4]); 93.71% in data set [1] (60° C., 5 Days); 93.52% in data set [1] (60° C., 10 Days). Besides, the “Changes of HPLC purity over 10 days” value in data set [1] (60° C.) is −0.31. In addition, the Particle fluidity result in data set [2] is reported as “poor fluidity”.
In the case of `CC(C)(C)[C@H](NC(=O)C(F)(F)F)C(=O)N1C[C@H]2[C@@H]([C@H]1C(=O)N[C@H](C#N)C[C@@H]1CCNC1=O)C2(C)C` [Crystal form 1], the “HPLC purity (%)” value in data set [1] (setting [4]) is 95.34%; in data set [1] (60° C., 5 Days), 95.34%; in data set [1] (60° C., 10 Days), 95.31%. The “Changes of HPLC purity over 10 days” value in data set [1] (60° C.) is −0.03. Further, the “Stability of crystal form and HPLC data” value in data set [1] was “more stable than crystal form 2, crystal form 4 and crystal form 5”. In data set [2], the Particle fluidity result was “poor fluidity”.
Consider `CC(C)(C)[C@H](NC(=O)C(F)(F)F)C(=O)N1C[C@H]2[C@@H]([C@H]1C(=O)N[C@H](C#N)C[C@@H]1CCNC1=O)C2(C)C` [Crystal form B], for which the “HPLC purity (%)” value in data set [1] (setting [4]) is 99.57%; in data set [1] (60° C., 5 Days), 99.56%; in data set [1] (60° C., 10 Days), 99.54%. Besides, the “Changes of HPLC purity over 10 days” value in data set [1] (60° C.) was −0.03. Also, in data set [1], the “Stability of crystal form and HPLC data” value is “more stable than crystal form 2, crystal form 4 and crystal form 5”. Besides, the Particle fluidity entry in data set [2] is “good in particle fluidity”.
Consider `CC(C)(C)[C@H](NC(=O)C(F)(F)F)C(=O)N1C[C@H]2[C@@H]([C@H]1C(=O)N[C@H](C#N)C[C@@H]1CCNC1=O)C2(C)C` [Crystal form 4], for which the “HPLC purity (%)” value in data set [1] (setting [4]) turned out to be 93.31%; in data set [1] (60° C., 5 Days), 93.26%; in data set [1] (60° C., 10 Days), 93.14%. Also, the “Changes of HPLC purity over 10 days” value in data set [1] (60° C.) is given as −0.17.
`CC(C)(C)[C@H](NC(=O)C(F)(F)F)C(=O)N1C[C@H]2[C@@H]([C@H]1C(=O)N[C@H](C#N)C[C@@H]1CCNC1=O)C2(C)C` [Crystal form 5]: the “HPLC purity (%)” value in data set [1] (setting [4]) turned out to be 91.23%; in data set [1] (60° C., 5 Days) it was 91.05%; in data set [1] (60° C., 10 Days), 90.79%. Also, the “Changes of HPLC purity over 10 days” value in data set [1] (60° C.) is recorded as −0.44. Also, the Particle fluidity result in data set [2] is on record as “poor fluidity”.
Regarding `CC(C)(C)[C@H](NC(=O)C(F)(F)F)C(=O)N1C[C@H]2[C@@H]([C@H]1C(=O)N[C@H](C#N)C[C@@H]1CCNC1=O)C2(C)C` [Crystal form A], the “HPLC purity (%)” value in data set [1] (setting [4]) worked out at 99.86%; in data set [1] (60° C., 5 Days) it was 99.86%; in data set [1] (60° C., 10 Days), 99.85%. Besides, the “Changes of HPLC purity over 10 days” value in data set [1] (60° C.) is −0.01. The “Stability of crystal form and HPLC data” value in data set [1] is “more stable than crystal form 2, crystal form 4 and crystal form 5”. For the same molecule, the Particle fluidity result in data set [2] is listed as “good in particle fluidity”.
Consider `CC(C)(C)[C@H](NC(=O)C(F)(F)F)C(=O)N1C[C@H]2[C@@H]([C@H]1C(=O)N[C@H](C#N)C[C@@H]1CCNC1=O)C2(C)C` [HS378, (1R, 2S, 5S)-N-{(1S)-1-cyano-2-[(3S)-2-oxopyrrolidin-3-yl]-ethyl}-6,6-dimethyl-3-[3-methyl-N-(trifluoroacetyl)-L-valyl]-3-azabicyclo [3.1.0]hexane-2-carboxamide], for which the Oral plasma concentration entry in data set [3] is on record as “exceeding in vitro antiviral cell efficacy”.
